Converted amounts (≈) assume the structure as drawn. The source made the active and inactive calls. The calls are words filed in the database; no cut-off is given here.
Legend:
[1] = species on record: Danio rerio; assay: Antialzheimer activity in AlCl3-induced Zebrafish model of Alzheimer's disease assessed as increase in motility distance at 0.33 ug/ml relative to control; assay type: functional; settings: dose 0.33 µg/ml
[2] = Cytotoxicity against mouse HT22 cells assessed as cell viability at 20 uM by MTT assay relative to control; assay type: cell-based, HT-22; settings: read-out: Activity
[3] = species on record: Danio rerio; assay: Antialzheimer activity in AlCl3-induced Zebrafish model of Alzheimer's disease assessed as change in motility speed at 1 ug/ml (reference value: 1.08 mm/s); assay type: functional; settings: dose 1 µg/ml
[4] = Acute toxicity in Kunming mouse assessed as piloerection at 250 to 1000 mg/kg measured after 24 hrs; assay type: organism-based; settings: in vivo, dose 250-1000 mg/kg
[5] = target: T1, Cholinesterase (Homo sapiens, UniProt P06276); assay: Inhibition of human serum BuChE using acetylcholine iodide as substrate incubated for 15 mins by Ellman's method
[6] = Toxicity in Zebrafish assessed as induction of yolk sac absorption delay at 6.25 ug/ml relative to control; design: species or system Danio rerio; settings: in vivo, at 6.25 µg/mL
[7] = Toxicity in AlCl3-induced Zebrafish model of Alzheimer's disease assessed as mortality at 5 ug/ml relative to control; design: species or system Danio rerio; settings: in vivo, at 5 µg/mL
[8] = Toxicity in Zebrafish; design: species or system Danio rerio; settings: in vivo
[9] = Toxicity in Zebrafish assessed as induction of yolk sac absorption delay at 1.04 ug/ml relative to control; design: species or system Danio rerio; settings: in vivo, at 1.04 µg/mL
[10] = Toxicity in Zebrafish assessed as induction of yolk sac absorption delay at 3.125 ug/ml relative to control; design: species or system Danio rerio; settings: in vivo, at 3.125 µg/mL
[11] = Effect on tau protein level in mouse HT22 cells transfected with pRK5-GFP-Tau P301L plasmid assessed as fluorescence intensity at 20 uM by fluorescence microscopy (reference value: 33.6); assay type: functional, HT-22
[12] = system: HT-22; assay: Down regulation of APP protein expression in mouse HT22 cells transfected with pEGFP-N1-APP plasmid at 10 to 20 uM by Western blot analysis; assay type: functional, cell-based; settings: dose 10-20 µM
[13] = Toxicity in Zebrafish assessed as death at 6.25 ug/ml relative to control; design: species or system Danio rerio; settings: in vivo, at 6.25 µg/mL, read-out: Activity
[14] = target: T1, Cholinesterase; assay: Pseudo-irreversible inhibition of human serum BuChE assessed as residual activity at 0.1 times IC50 using acetylcholine iodide as substrate measured 240 mins post dilution by Ellman's method relative to control
[15] = Toxicity in Zebrafish assessed as small or misshapen brain at 6.25 ug/ml relative to control; assay type: tissue-based, Danio rerio; settings: in vivo, at 6.25 µg/mL
[16] = species on record: Mus musculus; assay: Improvement in brain cholinergic activity in scopolamine-induced mouse model of amnesia assessed as increase in ChAT vitality; assay type: functional, organism-based
[17] = target: T2, Amine oxidase [flavin-containing] B (Homo sapiens, UniProt P27338); assay: Inhibition of recombinant human MAO-B
T2 sequence (P27338 whole entry): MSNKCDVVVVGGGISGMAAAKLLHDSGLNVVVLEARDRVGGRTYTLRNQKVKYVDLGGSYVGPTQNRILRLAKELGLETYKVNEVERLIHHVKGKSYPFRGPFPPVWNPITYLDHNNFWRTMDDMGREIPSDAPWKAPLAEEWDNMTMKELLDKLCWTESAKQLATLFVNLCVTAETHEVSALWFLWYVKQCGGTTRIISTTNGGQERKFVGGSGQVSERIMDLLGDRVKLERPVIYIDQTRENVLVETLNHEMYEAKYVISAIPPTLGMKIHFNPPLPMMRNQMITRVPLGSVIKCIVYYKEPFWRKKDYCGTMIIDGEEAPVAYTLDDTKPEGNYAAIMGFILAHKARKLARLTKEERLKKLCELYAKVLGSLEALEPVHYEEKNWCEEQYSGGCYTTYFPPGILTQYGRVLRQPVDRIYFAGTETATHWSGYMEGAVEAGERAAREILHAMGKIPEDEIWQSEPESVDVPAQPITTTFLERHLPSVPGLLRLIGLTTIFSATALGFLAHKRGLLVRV

[18] = target: T3, Amine oxidase [flavin-containing] A (Homo sapiens, UniProt P21397); assay: Inhibition of recombinant human MAO-A
T3 sequence (P21397 whole entry): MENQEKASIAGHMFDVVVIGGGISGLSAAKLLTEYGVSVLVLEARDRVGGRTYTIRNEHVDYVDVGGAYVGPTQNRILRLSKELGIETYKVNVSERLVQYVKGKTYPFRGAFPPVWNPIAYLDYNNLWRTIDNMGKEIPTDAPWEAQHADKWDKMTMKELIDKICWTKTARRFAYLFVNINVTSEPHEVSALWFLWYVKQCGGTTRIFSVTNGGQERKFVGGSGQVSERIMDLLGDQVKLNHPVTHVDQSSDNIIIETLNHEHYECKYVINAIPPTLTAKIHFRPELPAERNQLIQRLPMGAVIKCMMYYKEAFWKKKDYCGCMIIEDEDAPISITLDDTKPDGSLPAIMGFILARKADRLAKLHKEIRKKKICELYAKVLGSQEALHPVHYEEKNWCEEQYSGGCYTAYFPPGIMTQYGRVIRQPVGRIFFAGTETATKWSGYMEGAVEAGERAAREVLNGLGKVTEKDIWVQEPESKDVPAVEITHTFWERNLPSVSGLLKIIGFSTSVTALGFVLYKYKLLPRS

[19] = Toxicity in Zebrafish assessed as mortality at 50 ug/ml relative to control; design: species or system Danio rerio; settings: in vivo, at 50 µg/mL
[20] = Toxicity in AlCl3-induced Zebrafish model of Alzheimer's disease assessed as mortality at 200 ug/ml relative to control; design: species or system Danio rerio; settings: in vivo, at 200 µg/mL
[21] = species on record: Danio rerio; assay: Protection against amyloid beta (1 to 42)-induced zebrafish model of vascular injury assessed as vascular injury rate at […] (reference value: 73.3%); assay type: functional; settings: dose 0.11 µg/ml
[22] = Acute toxicity in Kunming mouse assessed as decrease in autonomic activity at 250 to 1000 mg/kg; assay type: organism-based; settings: in vivo, dose 250-1000 mg/kg
[23] = species on record: Danio rerio; assay: Protection against amyloid beta (1 to 42)-induced zebrafish model of vascular injury assessed as reduction in vascular injury at […] relative to control; assay type: functional; settings: dose 0.11 µg/ml
[24] = Toxicity in Zebrafish assessed as mortality at 25 ug/ml relative to control; design: species or system Danio rerio; settings: in vivo, at 25 µg/mL
[25] = Drug metabolism in rat intestinal flora by HPLC analysis; assay type: ADME, tissue-based, Intestine
[26] = system: HT-22; assay: Down regulation of tau protein expression in mouse HT22 cells transfected with pRK5-GFP-Tau P301L plasmid at 2.5 to 20 uM by Western blot analysis; assay type: functional, cell-based; settings: dose 2.5-20 µM
[27] = Toxicity in AlCl3-induced Zebrafish model of Alzheimer's disease assessed as mortality at 10 ug/ml relative to control; design: species or system Danio rerio; settings: in vivo, at 10 µg/mL
[28] = system: L02; assay: Cytotoxicity against human LO2 cells assessed as reduction in cell viability at 25 uM by MTT assay; assay type: cell-based; settings: l02, 25 µM

T1 sequence (P06276 whole entry): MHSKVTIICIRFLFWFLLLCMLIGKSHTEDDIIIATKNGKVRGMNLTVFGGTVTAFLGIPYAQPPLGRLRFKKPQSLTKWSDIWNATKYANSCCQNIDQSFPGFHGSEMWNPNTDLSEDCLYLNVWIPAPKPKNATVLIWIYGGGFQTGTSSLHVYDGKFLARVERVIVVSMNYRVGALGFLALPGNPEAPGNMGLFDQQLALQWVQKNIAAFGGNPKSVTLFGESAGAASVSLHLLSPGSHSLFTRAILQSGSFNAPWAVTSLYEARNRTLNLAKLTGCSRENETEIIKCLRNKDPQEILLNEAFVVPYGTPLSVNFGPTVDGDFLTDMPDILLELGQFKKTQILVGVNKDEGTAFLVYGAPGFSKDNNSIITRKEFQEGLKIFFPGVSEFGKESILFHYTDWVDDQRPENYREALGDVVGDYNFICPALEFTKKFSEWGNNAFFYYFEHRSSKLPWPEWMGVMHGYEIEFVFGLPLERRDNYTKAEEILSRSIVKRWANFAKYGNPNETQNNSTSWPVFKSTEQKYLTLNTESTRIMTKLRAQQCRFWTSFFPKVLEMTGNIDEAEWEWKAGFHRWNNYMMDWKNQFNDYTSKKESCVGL

CCN(C)C(=O)Oc1ccc(/C=C/C(=O)N2CCc3ccccc3C2)cc1OC
Efficacy [1]: 72.6% | viability at 20 µM [2]: 79.8% | Activity [3]: 2.15 millimeter/sec | Activity [4]: Non-Toxic | IC50 [5]: 0.97 µM | Activity [6]: 100% | mortality at 5 ug/ml [7]: 0% | LC10 [8]: 6.25 µg/mL (≈ 15.8 µM) | MNTC ([8]; read-out: MNCC): 3.12 µg/mL | Activity [9]: 13.3% | Activity [10]: 40% | Flu intensity [11]: 17.9 | Activity [12]: Active | mortality at 6.25 ug/ml [13]: 13.3% | Activity [14]: 66.2% | Activity [15]: 26.7% | Activity [16]: Dose-dependent effect | IC50 [17]: 5.3 µM | IC50 [18]: 15.9 µM | mortality at 50 ug/ml [19]: 100% | mortality at 200 ug/ml [20]: 100% | Activity [21]: 80% | Activity [22]: Toxic | Efficacy [23]: -9.1% | mortality at 25 ug/ml [24]: 100% | Drug metabolism [25]: Metabolite_Detected | Activity [26]: Active | mortality at 10 ug/ml [27]: 0% | Activity [28]: Non-Toxic
